Assays:
[1] = system: free virus particles present on the surface of labial herpes lesions; test: Clinical study 3: free virus particles on labial herpes lesions (Tzank test); assay type: in vivo, human (patients); conditions: labial lesion smears, twice daily application
Procedure: Labial lesion smears were collected and mean virus concentration was measured by quantifying the number of multinucleated virus-infected giant cells in each lesion using Tzank test, and the mean amount of free virus particles was determined in both groups.

[2] = seawater containing […] NaCl; pure glycerol; cited from earlier work
[3] = system: human multilayered epidermis; test: Glycerol film retention on in vitro human multilayered epidermis (MTT cell viability); assay type: cell-based
Procedure: In the absence of any specific in vivo model to study the duration of the film retention by a biological surface, an in vitro model of human multilayered epidermis was used to evaluate the effects of the addition of non-cytotoxic concentrations of different PCD-rich plant extracts, either singly or in different associations, on glycerol film retention. Human epidermis was grown on a permeable polycarbonate filter (1 cm diameter) and was kept on a sponge soaked with culture medium, its outer surface remaining in contact with air, as is the case in vivo. Through capillary action, the culture medium diffuses through the polycarbonate filter and supplies nourishment to the epidermal cells to keep those cells alive.
Inserting one or two additional polycarbonate filters increases the distance between the culture medium and the cells; the amount of available medium, which reaches the cells, then decreases, and in absence of nutrients and hydration, the cells die. […] The percentage of live cells is proportional to the duration of retention of the glycerol film by the epidermal surface.
Various glycerol preparations containing test products (mainly PCD-rich plant extracts), at concentrations varying between 0.1 and 5.0%.
Quantity of Test Product Applied Per Epidermis: 20 μl
Glycerol preparations were directly applied on the epidermis as thin layer with the help of a pipette (n=6 per concentration): the epidermis was placed on two filters and the test product was applied on the epidermis surface. The filters were kept on a sponge, which was inserted in a petri dish containing an appropriate quantity of medium to nourish the cells. […]
The cell viability was scored as follows: • Score 4: 100% cells (compared to the controls) with intense blue color. • 3: Approximately 75% live cells with dark blue color. • 2: Approximately 50% live cells with medium blue color. • 1: Approximately 25% live cells with light blue color. • 0: No live cells, whitish epidermis color. […]

[4] = system: rat dorsal skin lesions; test: In vivo rat wound healing; conditions: 0.2 ml per lesion for 7 consecutive days, filmogen glycerol as per the example N° 6
Procedure: The rat dorsal skin was shaved and 3 circular lesions, […] in diameter and depth, were made to the hypodermis with a dermatome. 0.2 ml of each test product was applied on each lesion for 7 consecutive days. Lesion diameter was measured every day and mean values were compared.

[5] = system: diabetic ulcers; conditions: human, in vivo
Procedure: Samples of wound fluid (100 μl) were collected at hourly intervals over a 6 h period, and the quantity of glycerol was measured.

[6] = Osmolality and osmotic pressure of glycerol and seawater; assay type: physicochemical; conditions: pure glycerol
From the text: An injured skin or mucosa acts as a semi-permeable membrane and allows osmosis to occur. The flow of solvents across a semi-permeable membrane constitutes the osmotic flow or osmosis. The pressure required to achieve osmotic equilibrium is known as osmotic pressure. The higher the concentration of a […], the more osmotic pressure it exerts. Fresh water is considered isotonic with a density of 1000 kg/m^3. […] Osmotic pressure exerted by glycerol is nearly 10 times higher compared to seawater. The solute concentration of glycerol is also much higher compared to seawater. It is the total solute concentration in a solution that determines the osmotic flow of liquid, as osmosis is driven by differences in solute/solvent concentrations that exist across a semi-permeable membrane. The total solute concentration can be determined through the osmolality of the solution. […] Therefore, glycerol could have been a product of choice for application on infected surfaces in order to generate osmotic outflow of hypotonic liquid and to clean the injury. Unfortunately, the exudating hypotonic liquid immediately dilutes the glycerol and drains it from the wound surface within a few minutes, limiting these cleaning effects.

[7] = system: nasal sinus infection (rhinosinusitis); test: Clinical study 4: rhinosinusitis; assay type: in vivo, human (patients)
Procedure: A 21-day controlled clinical trial of G-PCD compared to glycerol alone in patients suffering from acute symptoms of nasal sinus infection was performed.
The aim of this study was to evaluate the sinus-opening efficacy of G-PCD solution (32% glycerol, 1% plant PCDs in water) as per the example N° 5, compared to glycerol alone (32% glycerol in water). Among 127 patients suffering from acute and chronic sinusitis 109 were selected for the study. 58 patients were treated with G-PCD and 51 with glycerol. Products were administered as sprays (3 at each treatment application), 2-3 times per day for a maximum period of 21 days.
The parameters studied were: 1. Effect on nasal congestion and runny nose; 2. Effect on pain upon pressure around the nasal sinus surface; 3. Overall condition of the patient with respect to sinus infection; and 4. The influence on antibiotic therapy. […] Only 21% patients in the G-PCD group required antibiotic therapy for an average 7.41 days compared to 40% in the glycerol group for a period of 10.5 days (FIG. 8)

[8] = system: human epidermis (normal human epithelial cells); test: In vitro osmotic/hydrating properties on dehydrated human epidermis culture; assay type: cell-based; conditions: 20 μl, day 7, filmogen glycerol = preparation n° 2 in Example 5 (Orosol)
From the text: In the absence of in vivo models to mimic the osmotic exudation of hypotonic liquid from the oral or vaginal mucosa, a cell culture model of human epidermis was used which contains normal human epithelial cells grown on a polycarbonate filter in an air/liquid phase. Under optimal conditions, a multilayered cell culture, equivalent to the mucosal surface is obtained on a polycarbonate support. This support is placed on a sponge in contact with a defined amount of culture medium. The medium diffuses into the sponge and the filter, and supplies nutrients as well as hydration to the cells. Under these conditions, the cell culture can be kept alive for at least a week.
To create an experimental model of mucosa dryness, we inserted one or two extra filters between the cells and the sponge, thereby reducing the amount of liquid medium available to the cells. In absence of hydration, cells die, and the cell mortality can be measured with a vital dye MU. Cell mortality is proportional to the culture surface's dryness. […]
The aim of this study was to evaluate the hydrating properties of filmogen glycerol compared to regular glycerol. […] Each epidermis was washed by stirring the culture in culture medium for 20 seconds on days 1, 3 and 5, and cell viability was measured on day 7 using MU staining.

[9] = spray 2-3 times per day, glycerol = 32% glycerol in water

In the case of `OCC(O)CO` [glycerol], the “mean amount of free virus particles, day 1” value [1] is reported as greater than 750, the “mean amount of free virus particles, day 4” value [1] is reported as 635 (±17.51) and the “mean amount of free virus particles, day 7” value [1] is reported as 542 (±22.35.). The “mean amount of free virus particles, day 14” value [1] was 522 (±13.50), the “osmolality (total solute/mol wt/kg)” value [2] was 10.86 mols/kg and the “cell survival % after 72 h” value ([3]; 20 μl on epidermis placed on two filters, 37° C., 5% CO2, 72 h, MTT) was 23.85 (±4.8) %. The “higher cell survival compared to the positive controls” value ([3]; 72 h, positive controls without product 6.32%) was 17.53%, the “cells die within 72 h” value ([3]; glycerol control, free of any PCD extract) was 60-70% and the “Mean lesion size (diameter/day/lesion during 7 days)” value [4] was 2.95 cm^2. The “glycerol eliminated from the wound within 1 hour” value ([5]; 1 h) was roughly 92%, the “glycerol eliminated from the wound within 2 hours” value ([5]; 2 h) was 100% and the “osmotic activity compared to seawater” value [6] was roughly 18 times. For the same compound, the “patients requiring antibiotic therapy” value ([7]; 21-day trial) was 40%, the “average duration of antibiotic therapy” value ([7]; patients who required antibiotics) was 10.5 days and the “nasal congestion symptom change after 30 minutes” value [7, 9] was −20.40%. For the same compound, the “nasal congestion symptom change after 3 days” value [7, 9] was −19.09%, the “nasal congestion symptom change after 7 days” value [7, 9] was −30.25% and the “overall rhinosinusitis condition change after 30 minutes” value [7, 9] was −22.56%. The “overall rhinosinusitis condition change after 3 days” value [7, 9] was “+3.52%”, the “overall rhinosinusitis condition change after 7 days” value [7, 9] was −17.62% and the “sinus pain symptom change after 30 minutes” value [7, 9] was −1.69%. For the same compound, the “sinus pain symptom change after 3 days” value [7, 9] was −8.36%, the “sinus pain symptom change after 7 days” value [7, 9] was −53.36% and the “increase in intensity of runny nose” value ([7]; within 30 minutes of first product administration) was 31.71%. For the same compound, the “Mean score of cell survival after 1-week culture, partially dehydrated cultures” value ([8]; 1 extra filter) was 62.3% and the “Mean score of cell survival after 1-week culture, severely dehydrated cultures” value ([8]; 2 extra filters) was 43.15%.

— US10335364B2, “Composition for topical application comprising glycerol and tannins” (priority 2013, dated 2019)
